Legend:
[1] = tested on: IL-6 (interleukin 6); assay: ELISA for IL-6 in HEKa cells under inflammatory condition; type: cell-based, human; settings: TNF-α/IFN-γ or IL-17A/IL-22 induced inflammatory condition, 10·M, FIGS. 5 to 7
Method: (§1) In order to analyze whether treatment of Compound 8 has an atopy alleviation effect, ELISA (enzyme-linked immunosorbent assay) for IL-6 (interleukin 6) and IL-8 (interleukin 8) which are very closely related to atopic inflammation and psoriasis was performed.
(§2) As the specific experimental method, HEKa cells (Human Epidermal keratinocytes, adult), human-derived epidermal keratinocytes were seeded on a 24 well plate at a density of 1×10^5 cells, and cultured in an EpiLife medium (1× Human keratinocyte Growth supplement, 1× antibiotics) in an incubator under 37° C. and 5% CO2 for 24 hours.
(§3) After culturing, while an inflammatory condition was induced by treatment with either TNF-α (Tumor necrosis factor-α)/IFN-γ (interferon-γ) or IL-17A (interleukin-17A)/IL-22 (interleukin-22) in each well, further treatment was performed with Compound 8 of the present invention at a concentration of 10·M, and then the cells were incubated for a certain period. After completing culturing, media were collected, and then ELISA for each IL-6 and IL-8 was carried out.

[2] = tested on: IL-8 (interleukin 8); assay: ELISA for IL-8 in HEKa cells under inflammatory condition; type: cell-based, human; settings: TNF-α/IFN-γ or IL-17A/IL-22 induced inflammatory condition, 10·M, FIGS. 5 to 7
Method: as §1, §2, §3

[3] = tested on: IL-8 (interleukin-8); assay: Cytokine gene expression, IL-8, IL-17A/TNF-α condition; type: cell-based, human; settings: FIG. 9
[4] = tested on: ALOX12B (Arachidonate 12-lipoxygenase, 12R type); assay: RT-PCR of psoriasis-related gene ALOX12B; type: cell-based, human; settings: HEKa cells, 20 uM, FIGS. 2 and 3
Method: (§4) A psoriasis-related genes were selected from the cDNA array result in which Compound 8 of the present invention was treated in HaCaT cells. In order to analyze whether Compound 8 has an effect on psoriasis alleviation, RT-PCR analysis for IL-36′ (interleukin 36 gamma), KLK7 (Kallikrein-related peptidase 7), OASL (2′-5′-Oligoadenylate Synthetase Like) and ALOX12B (Arachidonate 12-lipoxygenase, 12R type) which are very closely related to psoriasis was carried out. Further, KRT16 (Keratin 16), KRT6 (Keratin 6) and KRT1 (Keratin 1), known as psoriasis-related proliferation, differentiation markers were confirmed by a western blot analysis. As the specific experimental method, HEKa cells (Human Epidermal keratinocytes, adult), human-derived epidermal keratinocytes were seeded on a 24 well plate at a density of 1×10^5 cells, and cultured in an EpiLife medium (1× Human keratinocyte Growth supplement, 1× antibiotics) in an incubator under 37° C. and 5% CO2 for 24 hours. […]

[5] = tested on: psoriasis animal model induced by imiquimod 5% cream; assay: Psoriasis animal model, H&E staining of back tissue; type: in vivo, BALB/c mice; settings: FIG. 15
Method: In order to confirm the psoriasis treatment effect by Compound 8 of the present invention, dorsal hair of 8-week-old BALB/c mice (female) was removed using hair removal cream (Veet®, Oxy Reckitt Benckiser, Cedex, France), and subsequently imiquimod 5% cream (Aldara®; 3M Pharmaceuticals, UK; 62.5 mg) was applied on the back and both ears of the mice twice in the morning and in the afternoon (Sensitization; Day 0). Then, after a barrier recovery period of 2 days, imiquimod 5% cream (62.5 mg/day) was applied repeatedly for 7 days (Induction stage; Day 2 -Day 8), thereby inducing the psoriasis animal model.
After inducing the psoriasis animal model, Compound 8 of the present invention dissolved in ethanol (0.5%) and cream containing Compound 8 of the present invention (The same composition as that of the cosmetic composition of Example 14 except that it contained 0.5% by weight of Compound 8) were applied on the back once in the morning for 5 days (Treatment Stage; Day 8-Day 12). An untreated control group and a disease control group (vehicle) were treated with cream not containing Compound 8 of the present invention (cosmetic composition of Comparative Example 2) and ethanol, and during the treatment period, imiquimod 5% cream was applied thereon every other day, thereby maintaining psoriasis. […]

[6] = tested on: IL-36G (interleukin 36, gamma); assay: RT-PCR of psoriasis-related gene IL-36G; type: cell-based, human; settings: HEKa cells, 20 uM, FIGS. 2 and 3
Method: as §4

CCCCCCCCCCCCCCCC(=O)NCCCC[C@H](NC(=O)[C@H](CCCCN(CC(=O)O)CC(=O)O)N(CC(=O)O)CC(=O)O)C(=O)O [Compound 8]
secretion of IL-6 [1]: significantly reduced | secretion of IL-8 [2]: significantly reduced | expression level of IL-8 [3]: reduced | expression level of ALOX12B gene [4]: significantly decreased | thickness of stratum corneum [5]: significantly reduced | expression level of IL-36G gene [6]: significantly decreased

Source: patent US10617662B2, “Autophagy activation-induced compound for improving skin inflammation for aging” (INCOSPHARM CORPORATION, priority 2017, dated 2020)
